What all share (experiment): Kinase profiling in a biochemical assay panel (mobility shift assays and ELISA), %-inhibition at 1 μM; selectivity entropy
Test [1] addresses panel of more than 300 wild-type and mutant kinases (313 kinase panel) (Homo sapiens, UniProt P16234, V561D).
For test [2], the target named is panel of more than 300 wild-type and mutant kinases (313 kinase panel) (Homo sapiens, UniProt P30291).
The target in test [3] is T1, panel of more than 300 wild-type and mutant kinases (313 kinase panel) (Homo sapiens, UniProt P54760).
T1 sequence (P54760 16-987): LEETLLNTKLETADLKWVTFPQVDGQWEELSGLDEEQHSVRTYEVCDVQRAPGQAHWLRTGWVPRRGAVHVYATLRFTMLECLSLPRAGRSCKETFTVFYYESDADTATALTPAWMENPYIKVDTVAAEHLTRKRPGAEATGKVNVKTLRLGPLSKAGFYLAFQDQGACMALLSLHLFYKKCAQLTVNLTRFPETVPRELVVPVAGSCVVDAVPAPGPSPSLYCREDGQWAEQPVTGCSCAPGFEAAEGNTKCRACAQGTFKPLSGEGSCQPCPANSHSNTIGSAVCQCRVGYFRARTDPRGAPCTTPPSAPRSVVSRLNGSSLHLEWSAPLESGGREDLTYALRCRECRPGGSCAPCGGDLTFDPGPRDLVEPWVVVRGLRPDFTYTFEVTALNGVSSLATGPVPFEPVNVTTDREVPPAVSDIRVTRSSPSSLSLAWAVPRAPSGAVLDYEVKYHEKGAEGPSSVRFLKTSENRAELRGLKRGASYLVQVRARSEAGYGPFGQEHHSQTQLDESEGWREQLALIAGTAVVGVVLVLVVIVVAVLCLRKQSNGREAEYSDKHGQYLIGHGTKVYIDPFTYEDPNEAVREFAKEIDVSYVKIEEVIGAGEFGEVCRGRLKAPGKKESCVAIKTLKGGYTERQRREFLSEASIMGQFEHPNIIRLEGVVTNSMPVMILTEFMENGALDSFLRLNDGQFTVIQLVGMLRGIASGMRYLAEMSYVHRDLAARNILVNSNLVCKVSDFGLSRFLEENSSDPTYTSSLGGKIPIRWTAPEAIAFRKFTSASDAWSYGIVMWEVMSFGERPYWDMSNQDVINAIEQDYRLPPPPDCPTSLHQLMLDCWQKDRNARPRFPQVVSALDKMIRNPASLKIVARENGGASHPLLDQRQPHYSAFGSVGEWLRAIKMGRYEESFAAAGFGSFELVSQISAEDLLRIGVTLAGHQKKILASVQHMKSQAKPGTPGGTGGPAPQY

For test [4], the target named is panel of more than 300 wild-type and mutant kinases (313 kinase panel) (Homo sapiens, UniProt P68400). The conditions noted are these: kinase CK2α1/β; 1 μM compound.
In test [5] the target is panel of more than 300 wild-type and mutant kinases (313 kinase panel) (Homo sapiens, UniProt Q06187). The conditions noted are these: kinase BTK; 1 μM compound.
In test [6] the target is T2, panel of more than 300 wild-type and mutant kinases (313 kinase panel) (Homo sapiens, UniProt Q9UF33).
T2 sequence (Q9UF33 23-1036): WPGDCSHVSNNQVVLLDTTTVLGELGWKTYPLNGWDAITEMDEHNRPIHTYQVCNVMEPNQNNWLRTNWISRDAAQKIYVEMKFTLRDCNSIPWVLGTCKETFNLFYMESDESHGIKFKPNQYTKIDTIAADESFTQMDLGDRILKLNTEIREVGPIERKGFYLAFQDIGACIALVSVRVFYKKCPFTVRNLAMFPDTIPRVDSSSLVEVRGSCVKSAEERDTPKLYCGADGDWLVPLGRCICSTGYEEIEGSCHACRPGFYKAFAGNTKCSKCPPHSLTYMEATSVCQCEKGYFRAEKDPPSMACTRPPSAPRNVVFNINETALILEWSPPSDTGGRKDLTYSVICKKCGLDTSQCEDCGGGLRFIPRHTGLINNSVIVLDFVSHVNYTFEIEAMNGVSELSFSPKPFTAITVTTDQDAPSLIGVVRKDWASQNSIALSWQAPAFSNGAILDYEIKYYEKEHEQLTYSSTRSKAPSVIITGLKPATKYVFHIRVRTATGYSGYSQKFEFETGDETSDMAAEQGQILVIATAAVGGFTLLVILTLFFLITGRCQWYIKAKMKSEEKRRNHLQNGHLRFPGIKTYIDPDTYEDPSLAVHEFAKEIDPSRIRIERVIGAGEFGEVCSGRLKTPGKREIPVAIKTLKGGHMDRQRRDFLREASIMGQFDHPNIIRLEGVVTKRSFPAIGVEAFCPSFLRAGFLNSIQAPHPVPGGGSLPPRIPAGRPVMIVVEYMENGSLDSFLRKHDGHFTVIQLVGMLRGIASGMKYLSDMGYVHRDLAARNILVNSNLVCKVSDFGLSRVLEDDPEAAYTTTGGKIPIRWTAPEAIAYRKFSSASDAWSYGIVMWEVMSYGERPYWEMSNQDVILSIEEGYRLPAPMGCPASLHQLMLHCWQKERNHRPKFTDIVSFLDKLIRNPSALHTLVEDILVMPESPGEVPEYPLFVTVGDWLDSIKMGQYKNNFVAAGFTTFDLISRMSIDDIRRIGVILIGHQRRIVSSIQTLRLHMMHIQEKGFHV
Particulars: kinase EPHA6; compound at 1 μM.

Test [7] has as its target T3, panel of more than 300 wild-type and mutant kinases (313 kinase panel) (Homo sapiens, UniProt Q9UQB9).
T3 sequence (Q9UQB9 1-309): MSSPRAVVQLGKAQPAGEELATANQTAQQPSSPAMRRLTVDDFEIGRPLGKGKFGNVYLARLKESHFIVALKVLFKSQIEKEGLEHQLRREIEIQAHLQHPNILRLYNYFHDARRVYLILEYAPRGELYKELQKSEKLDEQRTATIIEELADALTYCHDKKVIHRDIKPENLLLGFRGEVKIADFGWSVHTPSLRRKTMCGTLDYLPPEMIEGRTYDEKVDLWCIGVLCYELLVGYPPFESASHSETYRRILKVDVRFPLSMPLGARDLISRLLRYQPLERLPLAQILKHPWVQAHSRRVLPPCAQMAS
The conditions noted are these: kinase AurC; 1 μM compound.

Five compounds from paper PMC3961306, “Comparison of the Cancer Gene Targeting and Biochemical Selectivities of All Targeted Kinase Inhibitors Approved for Clinical Use” (PLoS ONE, 2014) can be followed below.

Chain of panel of more than 300 wild-type and mutant kinases (313 kinase panel) (Homo sapiens, UniProt P16234, V561D) (P16234 24-1089 V561D): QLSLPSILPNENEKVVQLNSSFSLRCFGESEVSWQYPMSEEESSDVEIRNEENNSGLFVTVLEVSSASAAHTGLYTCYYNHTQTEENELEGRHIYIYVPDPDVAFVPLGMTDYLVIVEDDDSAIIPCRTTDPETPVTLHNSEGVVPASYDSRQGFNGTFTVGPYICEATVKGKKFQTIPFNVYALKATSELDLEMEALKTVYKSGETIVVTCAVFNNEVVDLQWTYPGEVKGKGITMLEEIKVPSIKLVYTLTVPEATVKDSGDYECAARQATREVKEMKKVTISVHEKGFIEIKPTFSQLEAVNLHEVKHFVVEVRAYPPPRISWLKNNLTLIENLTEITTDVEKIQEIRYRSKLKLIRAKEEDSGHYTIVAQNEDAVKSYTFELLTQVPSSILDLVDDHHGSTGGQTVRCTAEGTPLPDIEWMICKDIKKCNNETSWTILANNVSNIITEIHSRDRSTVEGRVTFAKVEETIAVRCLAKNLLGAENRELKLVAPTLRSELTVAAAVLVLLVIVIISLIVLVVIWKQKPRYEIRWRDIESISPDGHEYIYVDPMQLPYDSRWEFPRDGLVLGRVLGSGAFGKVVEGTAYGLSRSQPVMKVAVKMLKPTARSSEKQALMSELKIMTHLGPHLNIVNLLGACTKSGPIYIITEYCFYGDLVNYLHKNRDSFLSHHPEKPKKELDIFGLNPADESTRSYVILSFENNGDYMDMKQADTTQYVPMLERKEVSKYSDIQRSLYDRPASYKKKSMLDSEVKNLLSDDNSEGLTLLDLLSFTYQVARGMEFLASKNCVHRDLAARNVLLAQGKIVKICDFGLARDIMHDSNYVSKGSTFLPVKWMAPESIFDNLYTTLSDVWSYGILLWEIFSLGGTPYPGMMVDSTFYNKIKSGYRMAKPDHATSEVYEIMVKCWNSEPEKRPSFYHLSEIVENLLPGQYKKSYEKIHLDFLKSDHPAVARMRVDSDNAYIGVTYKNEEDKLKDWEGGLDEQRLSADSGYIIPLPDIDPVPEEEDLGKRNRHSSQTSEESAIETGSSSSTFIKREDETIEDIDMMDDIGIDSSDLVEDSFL
Chain of panel of more than 300 wild-type and mutant kinases (313 kinase panel) (Homo sapiens, UniProt P30291) (P30291 whole entry, change not shown): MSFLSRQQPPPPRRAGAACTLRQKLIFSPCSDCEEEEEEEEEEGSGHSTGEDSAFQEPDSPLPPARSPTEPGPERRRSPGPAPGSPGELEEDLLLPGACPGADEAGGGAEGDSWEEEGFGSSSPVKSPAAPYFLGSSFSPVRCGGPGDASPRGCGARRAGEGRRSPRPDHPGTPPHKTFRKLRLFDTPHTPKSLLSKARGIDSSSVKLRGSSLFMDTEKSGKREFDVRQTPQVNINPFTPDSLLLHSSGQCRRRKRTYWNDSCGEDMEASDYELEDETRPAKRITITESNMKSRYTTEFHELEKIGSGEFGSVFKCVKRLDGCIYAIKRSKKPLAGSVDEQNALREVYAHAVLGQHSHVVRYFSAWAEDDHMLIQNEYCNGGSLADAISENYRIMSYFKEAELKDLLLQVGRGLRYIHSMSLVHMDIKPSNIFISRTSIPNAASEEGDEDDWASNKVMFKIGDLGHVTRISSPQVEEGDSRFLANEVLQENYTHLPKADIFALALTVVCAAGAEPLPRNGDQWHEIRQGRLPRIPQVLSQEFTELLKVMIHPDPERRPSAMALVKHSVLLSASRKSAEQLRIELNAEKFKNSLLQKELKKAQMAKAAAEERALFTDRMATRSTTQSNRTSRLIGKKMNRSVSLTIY

Regarding `COc1cc2nccc(Oc3ccc(NC(=O)C4(C(=O)Nc5ccc(F)cc5)CC4)cc3)c2cc1OC` [cabozantinib], in test [1] (kinase PDGFRα(V561D), 1 μM), the “%-inhibition of PDGFRα(V561D)” value is reported as 99%. Besides, the “%-inhibition of WEE1” value in test [2] (kinase WEE1, compound at 1 μM) amounted to 5.45%. For the same compound, in test [3] (kinase EPHB4, compound at 1 μM), the “%-inhibition of EPHB4” value stood at 96%. Further, the “%-inhibition, CK2α1/β” value in test [4] was -2.76%. Further, in test [5], the “%-inhibition, BTK” value came out at 93%. Besides, the “%-inhibition of EPHA6” value in test [6] turned out to be 100%. In test [7], the “%-inhibition, AurC” value is reported as 86%.

For the compound `CCCS(=O)(=O)Nc1ccc(F)c(C(=O)c2c[nH]c3ncc(-c4ccc(Cl)cc4)cc23)c1F` [vemurafenib], in test [1] (kinase PDGFRα(V561D), 1 μM), the “%-inhibition of PDGFRα(V561D)” value is 56%. Also, the “%-inhibition of WEE1” value in test [2] (kinase WEE1, compound at 1 μM) is recorded as -1.64%. Also, in test [3] (kinase EPHB4, compound at 1 μM), the “%-inhibition of EPHB4” value came out at 3.73%. Further, in test [4], the “%-inhibition, CK2α1/β” value is -5.39%. Further, the “%-inhibition, BTK” value in test [5] amounted to 2%. For the same compound, the “%-inhibition of EPHA6” value in test [6] worked out at 37%. For the same compound, the “%-inhibition, AurC” value in test [7] was 13%.

As for `CNC(=O)c1cc(Oc2ccc(NC(=O)Nc3ccc(Cl)c(C(F)(F)F)c3)c(F)c2)ccn1` [regorafenib], the “%-inhibition of PDGFRα(V561D)” value in test [1] (kinase PDGFRα(V561D), 1 μM) came to 101%. Further, the “%-inhibition of WEE1” value in test [2] (kinase WEE1, compound at 1 μM) was 4.42%. Moreover, the “%-inhibition of EPHB4” value in test [3] (kinase EPHB4, compound at 1 μM) is reported as 80%. Also, the “%-inhibition, CK2α1/β” value in test [4] is on record as -9%. Besides, the “%-inhibition, BTK” value in test [5] is 2.55%. Besides, the “%-inhibition of EPHA6” value in test [6] was determined as 103%. Moreover, the “%-inhibition, AurC” value in test [7] came out at 22%.

With `CO[C@H]1C[C@@H]2CC[C@@H](C)[C@@](O)(O2)C(=O)C(=O)N2CCCC[C@H]2C(=O)O[C@H]([C@H](C)C[C@@H]2CC[C@@H](OC(=O)C(C)(CO)CO)[C@H](OC)C2)CC(=O)[C@H](C)/C=C(\C)[C@@H](O)[C@@H](OC)C(=O)[C@H](C)C[C@H](C)/C=C/C=C/C=C/1C` [temsirolimus], the “%-inhibition of PDGFRα(V561D)” value in test [1] (kinase PDGFRα(V561D), 1 μM) is given as -4%. In addition, in test [2] (kinase WEE1, compound at 1 μM), the “%-inhibition of WEE1” value stood at 4.25%. Further, the “%-inhibition of EPHB4” value in test [3] (kinase EPHB4, compound at 1 μM) is listed as -9%. For the same compound, in test [4], the “%-inhibition, CK2α1/β” value is -6.65%. For the same compound, the “%-inhibition, BTK” value in test [5] is on record as 18%. Besides, the “%-inhibition of EPHA6” value in test [6] came out at 0.437%. Moreover, the “%-inhibition, AurC” value in test [7] turned out to be 0.194%.

For `Cc1cn(-c2cc(NC(=O)c3ccc(C)c(Nc4nccc(-c5cccnc5)n4)c3)cc(C(F)(F)F)c2)cn1` [nilotinib], the “%-inhibition of PDGFRα(V561D)” value in test [1] (1 µM) stood at 100%. Moreover, in test [2] (1 µM), the “%-inhibition of WEE1” value was found to be 3.74%. The “%-inhibition of EPHB4” value in test [3] (1 µM) was found to be 91%. Moreover, the “%-inhibition, CK2α1/β” value in test [4] came out at 3.23%. Besides, the “%-inhibition, BTK” value in test [5] was 45%. In test [6], the “%-inhibition of EPHA6” value was 30%. In test [7], the “%-inhibition, AurC” value is 5%.
